Values after ≈ are worked out from the molar mass of the structure shown. “Also recorded” adds a separate entry of the source.
Experiments:
B. cereus ATCC 9634 = assay: antimicrobial spectrum, broth dilution method; type: cell-based; conditions: Bacillus cereus, ATCC9634, read-out: Minimum Inhibitory Concentration
Experimental: (§1) 1. The antimicrobial spectrum of aclacinomycins A and B was determined by the broth dilution method as follows: […]

B. megaterium = assay: antimicrobial spectrum, broth dilution method; type: cell-based; conditions: Priestia megaterium, read-out: Minimum Inhibitory Concentration
Experimental: as §1

[1] = system: Bacillus subtilis ATCC 6633; assay: antimicrobial spectrum, broth dilution method; type: cell-based; conditions: ATCC6633, read-out: Minimum Inhibitory Concentration
Experimental: as §1

Can tropicalis IAM 4924 = assay: antimicrobial spectrum, broth dilution method; type: cell-based; conditions: read-out: Minimum Inhibitory Concentration
Experimental: as §1

Can. albicans IAM 4905 = assay: antimicrobial spectrum, broth dilution method; type: cell-based; conditions: Candida albicans, IAM4905, read-out: Minimum Inhibitory Concentration
Experimental: as §1

Cory. bovis 1810 = assay: antimicrobial spectrum, broth dilution method; type: cell-based; conditions: Corynebacterium bovis, 1810, read-out: Minimum Inhibitory Concentration
Experimental: as §1

Diplo. pneumoniae Type 1 = assay: antimicrobial spectrum, broth dilution method; type: cell-based; conditions: Streptococcus pneumoniae, TYPE1, read-out: Minimum Inhibitory Concentration
Experimental: as §1

Diplo. pneumoniae Type 3 = assay: antimicrobial spectrum, broth dilution method; type: cell-based; conditions: Streptococcus pneumoniae, TYPE3, read-out: Minimum Inhibitory Concentration
Experimental: as §1

[2] = system: Kl. pneumoniae ATCC 10031; assay: antimicrobial spectrum, broth dilution method; type: cell-based; conditions: Klebsiella pneumoniae, ATCC10031, read-out: Minimum Inhibitory Concentration
Experimental: as §1

Mic. flavus = assay: antimicrobial spectrum, broth dilution method; type: cell-based; conditions: Micrococcus flavus, read-out: Minimum Inhibitory Concentration
Experimental: as §1

[3] = system: Mycobact. smegmatis ATCC 607; assay: antimicrobial spectrum, broth dilution method; type: cell-based; conditions: read-out: Minimum Inhibitory Concentration
Experimental: as §1

Ps. aeruginosa A20229 = assay: antimicrobial spectrum, broth dilution method; type: cell-based; conditions: Pseudomonas aeruginosa, A20229, read-out: Minimum Inhibitory Concentration
Experimental: as §1

Sar. lutea ATCC 9341 = assay: antimicrobial spectrum, broth dilution method; type: cell-based; conditions: Micrococcus luteus, ATCC9341, read-out: Minimum Inhibitory Concentration
Experimental: as §1

St. pyogenes NY 5 = assay: antimicrobial spectrum, broth dilution method; type: cell-based; conditions: Streptococcus pyogenes, NY5, read-out: Minimum Inhibitory Concentration
Experimental: as §1

Staph. aureus FDA 209P = assay: antimicrobial spectrum, broth dilution method; type: cell-based; conditions: Staphylococcus aureus, FDA209P, read-out: Minimum Inhibitory Concentration
Experimental: as §1

Staph. aureus Smith = assay: antimicrobial spectrum, broth dilution method; type: cell-based; conditions: Staphylococcus aureus, read-out: Minimum Inhibitory Concentration
Experimental: as §1

Strept. faecalis = assay: antimicrobial spectrum, broth dilution method; type: cell-based; conditions: Enterococcus faecalis, read-out: Minimum Inhibitory Concentration
Experimental: as §1

[4] = system: Gram-positive bacteria and yeasts; assay: antimicrobial activity (summary in words); type: cell-based
[5] = system: P388 cells or L1210 cells; assay: survival of BDF1 mice inoculated with P388 or L1210 cells; type: in vivo; conditions: for T/C / 30 day survivors / Mean survival time: daily for 10 days; for 30 day survivors: control 0/8; for Mean survival time: control 10.0
Experimental: 2. […] For example, when BDF1 mice weighing 18 to 22 grams are inoculated with 1 × 10^6 cells of P388 cells or 5 × 10^5 cells of L1210 cells intraperitoneally and aclacinomycin A and B and aclacinomycin A-DNA complex are administered intraperitoneally once daily for 10 days consecutively 24 hours after the inoculation, the survival time of the mice is prolonged remarkably at the rate of over 150% in a dosage range of 0.5 to 5 mg./kg. of body weight per day compared with control mice receiving no antibiotic, as shown in the following table: […]

[6] = acute toxicity, single injection; type: in vivo, Mouse; conditions: mouse, in vivo, single injection
Mouse = assay: acute toxicity, single injection; type: in vivo; conditions: mice
[7] = acute toxicity, single injection; type: in vivo, Rat; conditions: rat, in vivo, single injection
Rat = assay: acute toxicity, single injection; type: in vivo; conditions: rats
rabbits = assay: lethal dose (LD50) on rabbits; type: in vivo
hamsters = assay: acute cardiac alterations in the electrocardiograms of hamsters / cardiotoxicity; conditions: hamster, in vivo
L1210 cells = assay: cells; type: cell-based, mice; conditions: 3 days
[8] = system: DNA synthesis (L1210 cells); assay: cells; type: cell-based, mice; conditions: Mus musculus, L1210, 1 h; 14C-precursor incorporation, 37° C., 60 min.; read-out: ID50, DNA synthesis
[9] = system: RNA synthesis (L1210 cells); assay: cells; type: cell-based, mice
Vaccinia virus = assay: microbe, parasite or virus in culture; type: cell-based
[10] = system: nucleic acid biosynthesis (L1210 cells); type: cell-based, mice; conditions: below 1 mcg./ml. in the medium, 60 min.
lymphoma 6C3HED = lymphoma 6C3HED in mice (summary in words); type: in vivo
leukemia P388 = leukemia P388 in mice (summary in words); type: in vivo
various animal tumors = assay: antitumor activity in animal tumors (summary in words); type: in vivo; conditions: experimental animal tumors
[11] = system: cultured mammalian tumor cells; assay: growth of tumor cells in culture (summary in words); type: cell-based

CCC1(O)CC(OC2CC(N(C)C)C(OC3CC4OC5CC(=O)C(C)OC5OC4C(C)O3)C(C)O2)c2c(cc3c(c2O)C(=O)c2c(O)cccc2C3=O)C1C(=O)OC (stereo not shown) [Aclacinomycin B]
MIC (B. cereus ATCC 9634): < 0.2 µg/mL
MIC (B. megaterium): < 0.2 µg/mL
MIC [1]: < 0.2 µg/mL
MIC (Can tropicalis IAM 4924): 20 µg/mL (≈ 24.7 µM)
MIC (Can. albicans IAM 4905): 10 µg/mL (≈ 12.3 µM)
MIC (Cory. bovis 1810): < 0.2 µg/mL
MIC (Diplo. pneumoniae Type 1): 0.63 µg/mL (≈ 0.778 µM)
MIC (Diplo. pneumoniae Type 3): 0.63 µg/mL (≈ 0.778 µM)
MIC [2]: > 100 µg/mL
MIC (Mic. flavus): < 0.2 µg/mL
MIC [3]: 5 µg/mL (≈ 6.17 µM)
MIC (Ps. aeruginosa A20229): > 100 µg/mL
MIC (Sar. lutea ATCC 9341): < 0.2 µg/mL
MIC (St. pyogenes NY 5): 1.25 µg/mL (≈ 1.54 µM)
MIC (Staph. aureus FDA 209P): < 0.2 µg/mL
MIC (Staph. aureus Smith): < 0.2 µg/mL
MIC (Strept. faecalis): 2.5 µg/mL (≈ 3.09 µM)
antimicrobial activity [4]: effective in inhibiting the growth; also recorded: strong antimicrobial activity
T/C ([5]; 0.5 mg./kg./day i.p.): 147%
30 day survivors ([5]; 0.5 mg./kg./day i.p.): 0/4
Mean survival time ([5]; 0.5 mg./kg./day i.p.): 14.7 days
T/C ([5]; 1.0 mg./kg./day i.p.): 190%
30 day survivors ([5]; 1.0 mg./kg./day i.p.): 1/4
Mean survival time ([5]; 1.0 mg./kg./day i.p.): 19.0 days
T/C ([5]; 2.0 mg./kg./day i.p.): 175%
30 day survivors ([5]; 2.0 mg./kg./day i.p.): 0/4
Mean survival time ([5]; 2.0 mg./kg./day i.p.): 17.5 days
T/C ([5]; 4.0 mg./kg./day i.p.): 85%
30 day survivors ([5]; 4.0 mg./kg./day i.p.): 0/4
Mean survival time ([5]; 4.0 mg./kg./day i.p.): 8.5 days
survival time prolonged, rate compared with control mice ([5]; dosage range 0.5 to 5 mg./kg. per day, i.p. daily for 10 days): over 150%
LD50 ([6]; ip, intraperitoneal): 13.7 mg/kg
LD50 ([6]; intravenous): 16.4 mg/kg
lethal dose (LD50), in words (Mouse): high lethal dose
LD50 ([7]; ip, intraperitoneal): 10 to 15 mg/kg
LD50 ([7]; intravenous): 15 mg/kg
lethal dose (LD50), in words (Rat): high lethal dose
lethal dose (LD50), in words (rabbits): high lethal dose
cardiotoxicity on hamsters (hamsters): extremely low cardiotoxicity
IC50 (L1210 cells; Mus musculus, L1210, 72 h, 37° C., read-out: ID50, growth): 0.24 µg/mL (≈ 0.296 µM)
inhibition of cell growth (L1210 cells; below 1 mcg./ml. in the medium): over 50%
IC50 [8]: 4 µg/mL (≈ 4.94 µM)
inhibition of RNA synthesis (in words) [9]: specific inhibition on RNA synthesis
IC50 ([9]; Mus musculus, L1210, 1 h, 14C-precursor incorporation, 37° C., 60 min., read-out: ID50, RNA synthesis): 0.2 µg/mL (≈ 0.247 µM)
inhibition of growth of vaccinia virus (in words) (Vaccinia virus): effective in inhibiting the growth
IC50 (Vaccinia virus; Orthopoxvirus vaccinia, HeLa, read-out: ID50, Vaccinia virus): < 10 µg/mL
inhibition of nucleic acid biosynthesis [10]: over 50%
life prolongation, mice inoculated with lymphoma 6C3HED (lymphoma 6C3HED): markedly prolong the lives
inhibition of growth of leukemia P388 (leukemia P388): effective in inhibiting the growth
life prolongation, mice inoculated with leukemia P388 (leukemia P388): markedly prolong the lives
antitumor activity (in words) (various animal tumors): marked inhibitory effects; also recorded: potent antitumor activity
inhibition of growth of tumor cells in culture (in words) [11]: remarkable inhibitory effect

— US4071411A, “Antitumor antibiotics aclacinomycins A and B [RD-9187A]” (priority 1974, dated 1978)
